From patent publication US20240245639A1, “Dermal Application of Retinoic Acid Receptor Agonists for Amelioration of Hypertrophic Scar” (Northwestern University, priority 2023, published 2024)
Where two headings read alike, the source gives them in different places.

Key:
Format in all cases: cell-based
[1] = test system: primary human foreskin fibroblasts; assay: Antagonism of fibroblast activation in presence or absence of TGF-β1 (qRT-PCR, Western blot, immunofluorescence); details: 10,000 nM ATRA, ± 10 ng/mL TGF-β1, 48 hours
Description: RAR Agonist all-Trans Retinoic Acid Antagonizes Myofibroblast Activation We then wished to see whether another RAR agonist could antagonize myofibroblast activation.
(§1) Cells cultured on glass coverslips were fixed in 4% paraformaldehyde for 30 minutes at room temperature. Cells were blocked in 10% normal goat serum and incubated overnight at 4° C. in solutions of the following primary antibodies: Rabbit monoclonal α-human α-SMA (1:500 dilution, catalog #192455, Cell Signaling Technology, Danvers M A) or mouse α-human COL1A1 (1:1000 dilution, catalog #M-38c, DSHB, Iowa City, IA). The following day, cells were incubated in 1:200 diluted solutions of goat-α-rabbit IgG or donkey-α-mouse IgG Alexafluor 488-conjugated secondary antibodies (A11034 or A21202, Invitrogen) containing Alexafluor 568-conjugated phalloidin (A12380, Invitrogen) for 2 hours in the dark at room temperature, before a 20 minute counterstain in 500 ng/mL DAPI. Coverslips were mounted onto slides in the dark using Fluoro Gel with DABCO (Electron Microscopy Sciences, Hatfield, PA) and imaged on an EVOS-FL imaging system (ThermoFisher).
Harvested scar tissues were incubated in 0.5M ammonium thiocyanate for 20 minutes, followed by mechanical separation of dermis and epidermis using a dissecting microscope. Isolated dermal tissues were minced with a razor blade, submerged in RIPA buffer, and homogenized in the presence of 2 mm zirconia beads using a MagNA Lyser (Roche, Basel, Switzerland). Alternatively, cell culture samples were detached from the culture surface by trypsinization, collected by centrifugation, and lysed in RIPA buffer. Protein concentrations of cell culture and tissue samples were determined using a DC protein assay (BioRad). Five micrograms of total protein were loaded onto polyacrylamide gels and subjected to SDS-PAGE before transfer to nitrocellulose membranes, blocking with 5% dry milk in TBS-T, and probing with target-specific primary antibodies overnight. Species-specific secondary antibody solutions were added to membranes, and chemiluminescent signal was developed with Amersham ECL Western blotting detection reagent using X-ray film.
Primary antibodies used were rabbit anti-α-SMA (1:1000, 19245S, Cell Signaling Technology), rabbit anti-collagen I (1:1000, ab34710, Abcam), mouse anti-collagen I (1:1000, C2456, Sigma-Aldrich), and mouse anti-GAPDH (1:5000, MA5-15738, Invitrogen). Secondary antibodies utilized were HRP goat anti-rabbit IgG(H+L) and horse anti-mouse IgG(H+L) (Vector Laboratories, Newark, CA), both used at 1:5000.

[2] = test system: primary human HTS fibroblasts; assay: Collagen I deposition in hypertrophic scar fibroblasts (Western blot, immunofluorescence); details: HTS fibroblasts, ATRA, data not shown
Description: (§2) Since overproduction of collagen is characteristic of fibroblasts in tissue fibrosis, including hypertrophic scar and keloid, we wished to determine whether Ch55 also affects deposition of collagen I by these fibroblasts.
as §1, with “Coverslips were mounted onto slides in the dark using Fluoro Gel with DABCO (Electron Microscopy Sciences, Hatfield, PA) and imaged on an EVOS-FL imaging system (ThermoFisher).” left out
(§3) Harvested scar tissues were incubated in 0.5M ammonium thiocyanate for 20 minutes, followed by mechanical separation of dermis and epidermis using a dissecting microscope. […] Protein concentrations of cell culture and tissue samples were determined using a DC protein assay (BioRad). […]

[3] = test system: primary human keloid fibroblasts; assay: Collagen I deposition in keloid fibroblasts (Western blot, immunofluorescence); details: keloid fibroblasts, ATRA, data not shown
Description: as §2
as §1, with “Coverslips were mounted onto slides in the dark using Fluoro Gel with DABCO (Electron Microscopy Sciences, Hatfield, PA) and imaged on an EVOS-FL imaging system (ThermoFisher).” left out
as §3

[4] = test system: primary human foreskin fibroblasts; assay: In vitro single-concentration screen of predicted compounds (brightfield, qRT-PCR)
Description: In order to initially test the identified drugs, we applied each drug or DMSO vehicle control at a single concentration to primary human foreskin fibroblasts in vitro for 24 hours, before harvesting and measuring relative expression of selected myofibroblast marker genes by qRT-PCR. […] None of the drugs tested appeared to affect expression of TGFB1 (the gene encoding transforming growth factor-beta 1) at the examined concentrations.
MATERIALS AND METHODS Materials Emetine dihydrochloride hydrate, homoharringtonine, Ch55 and panobinostat were acquired from Fisher Scientific (Waltham, MA). AZD-7762 was acquired from Selleck Chemicals (Houston, TX). For in vitro work, emetine dihydrochloride hydrate was dissolved in sterile H2O at 50 mM. Homoharringtonine was dissolved in DMSO at 10 mg/mL. Panobinostat was dissolved in DMSO at 425 μM. […] AZD-7762 was dissolved in DMSO at 500 μM. Recombinant human TGF-β1 (Sigma-Aldrich) was dissolved in sterile H2O at 50 µg/mL. All-trans-retinoic acid (Thermo Scientific) was dissolved in DMSO at 10 mM.

[5] = single concentration, 24 hours, vs vehicle

CC1=C(/C=C/C(C)=C/C=C/C(C)=C/C(=O)O)C(C)(C)CCC1 [ATRA, all-trans retinoic acid]
F-actin stress fiber formation [1]: substantially decreased | collagen I protein (Western blot, immunofluorescence) [1]: substantially decreased | α-SMA protein (Western blot, immunofluorescence) [1]: substantially decreased | expression of collagen I [2]: dramatically decreased | expression of collagen I [3]: dramatically decreased

NC(=O)Nc1cc(-c2cccc(F)c2)sc1C(=O)N[C@H]1CCCNC1 [AZD-7762]
downregulation of myofibroblast-associated genes ([4]; single concentration, 24 hours): neither did it appear to downregulate | myofibroblast activation ([4]; single concentration, 24 hours): did not show a similar effect of fibroblast activation

CC[C@H]1CN2CCc3cc(OC)c(OC)cc3[C@@H]2C[C@@H]1C[C@H]1NCCc2cc(OC)c(OC)cc21 [emetine]
detachment of cells from the tissue culture plate ([4]; single concentration, 24 hours): notable detachment of cells | myofibroblast activation ([4]; single concentration, 24 hours): induced myofibroblast activation | CCN2 expression (qRT-PCR) [4, 5]: increased expression | MMP1 expression (qRT-PCR) [4, 5]: decreased expression | SERPINE1 expression (qRT-PCR) [4, 5]: increased expression

COC(=O)C[C@](O)(CCCC(C)(C)O)C(=O)O[C@@H]1C(OC)=C[C@]23CCCN2CCc2cc4c(cc2[C@H]13)OCO4 [homoharringtonine]
detachment of cells from the tissue culture plate [4]: notable detachment of cells
